# US20260184663A1, “INDENE COMPOUNDS, PHARMACEUTICAL COMPOSITIONS THEREOF, AND THEIR THERAPEUTIC APPLICATIONS” (NucMito Pharmaceuticals co. Ltd., priority 2022, published 2026)
# Read-outs that look alike come from different tables or passages of the source.
# How the values were obtained:
# Assay type in all cases: cell-based
# [1] = tested on: A549 (lung adenocarcinoma); experiment: Antiproliferative activity (CCK-8 cell viability), A549; details: Homo sapiens, 72 h; for inhibition at 3.3 µM: Compound concentration: 3.3 μM; for inhibition at 10 µM: Compound concentration: 10 μM; for inhibition at 30 µM: Compound concentration: 30 μM
# Procedure, shortened: (§1)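 Cells were seeded at 2,000-5,000/well (HeLa in MEM, HepG2 and SW480 in DMEM, A549 in F-12K, all with 10% FBS) and treated with compound at 3.3, 10 or 30 μM for 72 h at 37° C. CCK-8 was added for 4 h, absorbance was read at 450 nm, and viability was expressed relative to DMSO-treated wells.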
# [2] = tested on: MDA-MB-231 (breast cancer); experiment: Antiproliferative activity (CCK-8 cell viability), MDA-MB-231; details: Homo sapiens, 72 h, read-out: Antiproliferative activity in cancerous cells, MDA-MB-231 (inhibition of cell growth); for inhibition at 3.3 µM: Compound concentration: 3.3 μM; for inhibition at 10 µM: Compound concentration: 10 μM; for inhibition at 30 µM: Compound concentration: 30 μM
# Procedure, shortened: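 In this CCK-8 viability assay, MDA-MB-231 cells maintained in Dulbecco's modified Eagle's medium containing 10% fetal bovine serum were placed in 96-well plates (2,000-5,000 cells/well) and treated with compound for 72 h at 37° C. A 4 h incubation with 10 μL CCK-8 followed, plates were read at 450 nm, and viability was expressed against DMSO vehicle wells across replicates.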
# HepG2 (liver cancer) = experiment: Antiproliferative activity (CCK-8 cell viability), HepG2; details: Homo sapiens, 72 h, read-out: Antiproliferative activity in cancerous cells, HepG2 (inhibition of cell growth); for inhibition at 3.3 µM: Compound concentration: 3.3 μM; for inhibition at 10 µM: Compound concentration: 10 μM; for inhibition at 30 µM: Compound concentration: 30 μM
# Procedure, shortened: as §1
# [3] = tested on: A431 (epidermoid carcinoma); experiment: Antiproliferative activity (CCK-8 cell viability), A431; details: Homo sapiens, 72 h, read-out: Antiproliferative activity in cancerous cells, A431 (inhibition of cell growth); for inhibition at 3.3 µM: A-431, Compound concentration: 3.3 μM; for inhibition at 10 µM: A-431, Compound concentration: 10 μM; for inhibition at 30 µM: A-431, Compound concentration: 30 μM
# Procedure, shortened: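 Cell viability of compound-treated A431 cells was measured with a Cell Counting Kit-8. Each well received 10 μL of CCK-8 after 72 h of compound exposure, followed by 4 h incubation at 37° C. and a 450 nm plate-reader measurement. Percent viability was calculated relative to DMSO controls across replicates.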
# SW480 (colon cancer) = experiment: Antiproliferative activity (CCK-8 cell viability), SW480; details: Homo sapiens, 72 h; for inhibition at 3.3 µM: Compound concentration: 3.3 μM; for inhibition at 10 µM: Compound concentration: 10 μM; for inhibition at 30 µM: Compound concentration: 30 μM
# Procedure, shortened: as §1
# HeLa (cervical cancer) = experiment: Antiproliferative activity (CCK-8 cell viability), HeLa; details: Homo sapiens, 72 h, read-out: Antiproliferative activity in cancerous cells, HELA (inhibition of cell growth); for inhibition at 3.3 µM: Compound concentration: 3.3 μM; for inhibition at 10 µM: Compound concentration: 10 μM; for inhibition at 30 µM: Compound concentration: 30 μM
# Procedure, shortened: as §1
# [4] = tested on: B16F10 (malignant melanoma); experiment: Antiproliferative activity (CCK-8 cell viability), B16F10; details: Mus musculus, 72 h, read-out: Antiproliferative activity in cancerous cells, B16F10 (inhibition of cell growth); for inhibition at 3.3 µM: B16-F10, Compound concentration: 3.3 μM; for inhibition at 10 µM: B16-F10, Compound concentration: 10 μM; for inhibition at 30 µM: B16-F10, Compound concentration: 30 μM
# Procedure, shortened: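 Attached B16F10 cells in 96-well plates were incubated with compound at 37° C for 72 h, followed by 10 μL CCK-8 reagent per well and a further 4 h incubation. A multi-well plate reader measured absorbance at 450 nm. Percent viability across replicates was calculated against DMSO vehicle-treated cells.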
# [5] = read-out: Antiproliferative activity in cancerous cells, A549 (inhibition of cell growth)
# [6] = read-out: Antiproliferative activity in cancerous cells, SW480 (inhibition of cell growth)
structure (smiles),measurement,setting,value
"CC1=C(CC(=O)O)c2cc(F)ccc2/C1=C\c1cccc(C(O)c2ccccc2)c1 (centres unmarked) [C310, (Z)-2-(5-Fluoro-1-(3-(hydroxy(phenyl)methyl)benzylidene)-2-methyl-1H-inden-3-yl)acetic acid]",inhibition at 3.3 µM,[1]; [5],30 to 50%
same,inhibition at 10 µM,[1]; [5],30 to 50%
same,inhibition at 30 µM,[1]; [5],≥ 50%
same,inhibition at 3.3 µM,[2],< 30%
same,inhibition at 10 µM,[2],≥ 50%
same,inhibition at 30 µM,[2],≥ 50%
same,inhibition at 3.3 µM,HepG2 (liver cancer),30 to 50%
same,inhibition at 10 µM,HepG2 (liver cancer),≥ 50%
same,inhibition at 30 µM,HepG2 (liver cancer),≥ 50%
same,inhibition at 3.3 µM,[3],≥ 50%
same,inhibition at 10 µM,[3],30 to 50%
same,inhibition at 30 µM,[3],≥ 50%
same,inhibition at 3.3 µM,SW480 (colon cancer); [6],≥ 50%
same,inhibition at 10 µM,SW480 (colon cancer); [6],≥ 50%
same,inhibition at 30 µM,SW480 (colon cancer); [6],≥ 50%
same,inhibition at 3.3 µM,HeLa (cervical cancer),≥ 50%
same,inhibition at 10 µM,HeLa (cervical cancer),≥ 50%
same,inhibition at 30 µM,HeLa (cervical cancer),≥ 50%
same,inhibition at 3.3 µM,[4],< 30%
same,inhibition at 10 µM,[4],30 to 50%
same,inhibition at 30 µM,[4],≥ 50%
"CC1=C(CC(=O)O)c2cc(I)ccc2/C1=C\c1ccc(COCc2ccc(F)cc2)cc1 [B109, (Z)-2-(1-(4-(((4-Fluorobenzyl)oxy)methyl)benzylidene)-5-iodo-2-methyl-1H-inden-3-yl)acetic acid]",inhibition at 3.3 µM,[1]; [5],30 to 50%
same,inhibition at 10 µM,[1]; [5],≥ 50%
same,inhibition at 3.3 µM,[2],≥ 50%
same,inhibition at 10 µM,[2],≥ 50%
same,inhibition at 3.3 µM,HepG2 (liver cancer),< 30%
same,inhibition at 10 µM,HepG2 (liver cancer),≥ 50%
same,inhibition at 3.3 µM,[3],< 30%
same,inhibition at 10 µM,[3],≥ 50%
same,inhibition at 3.3 µM,SW480 (colon cancer); [6],< 30%
same,inhibition at 10 µM,SW480 (colon cancer); [6],≥ 50%
same,inhibition at 3.3 µM,HeLa (cervical cancer),≥ 50%
same,inhibition at 10 µM,HeLa (cervical cancer),≥ 50%
same,inhibition at 3.3 µM,[4],< 30%
same,inhibition at 10 µM,[4],≥ 50%
"CC1=C(CC(=O)O)c2cc(F)ccc2/C1=C\c1cccc(CS(=O)(=O)c2ccc(F)cc2)c1 [B51, (Z)-2-(5-Fluoro-1-(3-(((4-fluorophenyl)sulfonyl)methyl)benzylidene)-2-methyl-1H-inden-3-yl)acetic acid]",inhibition at 3.3 µM,[1]; [5],< 30%
same,inhibition at 10 µM,[1]; [5],30 to 50%
same,inhibition at 3.3 µM,[2],30 to 50%
same,inhibition at 10 µM,[2],≥ 50%
same,inhibition at 3.3 µM,HepG2 (liver cancer),< 30%
same,inhibition at 10 µM,HepG2 (liver cancer),< 30%
same,inhibition at 3.3 µM,[3],30 to 50%
same,inhibition at 10 µM,[3],30 to 50%
same,inhibition at 3.3 µM,SW480 (colon cancer); [6],< 30%
same,inhibition at 10 µM,SW480 (colon cancer); [6],30 to 50%
same,inhibition at 3.3 µM,HeLa (cervical cancer),30 to 50%
same,inhibition at 10 µM,HeLa (cervical cancer),≥ 50%
same,inhibition at 3.3 µM,[4],< 30%
same,inhibition at 10 µM,[4],≥ 50%
"COc1ccc2c(c1)C(CC(=O)O)=C(C)/C2=C/c1ccc(Oc2ccc(Cl)cc2)cc1 [C72, (Z)-2-(1-(4-(4-Chlorophenoxy)benzylidene)-5-methoxy-2-methyl-1H-inden-3-yl)acetic acid]",inhibition at 3.3 µM,[1]; [5],< 30%
same,inhibition at 10 µM,[1]; [5],< 30%
same,inhibition at 30 µM,"[1]; read-out: Antiproliferative activity in cancerous cells, A549",30 to 50%
same,inhibition at 3.3 µM,[2],30 to 50%
same,inhibition at 10 µM,[2],30 to 50%
same,inhibition at 3.3 µM,HepG2 (liver cancer),< 30%
same,inhibition at 10 µM,HepG2 (liver cancer),< 30%
same,inhibition at 3.3 µM,[3],30 to 50%
same,inhibition at 10 µM,[3],30 to 50%
same,inhibition at 3.3 µM,SW480 (colon cancer); [6],< 30%
same,inhibition at 10 µM,SW480 (colon cancer); [6],< 30%
same,inhibition at 30 µM,"SW480 (colon cancer); read-out: Antiproliferative activity in cancerous cells, SW480",< 30%
same,inhibition at 3.3 µM,HeLa (cervical cancer),≥ 50%
same,inhibition at 10 µM,HeLa (cervical cancer),≥ 50%
same,inhibition at 3.3 µM,[4],≥ 50%
same,inhibition at 10 µM,[4],≥ 50%
"CC1=C(CC(=O)O)c2cc(F)ccc2/C1=C\c1ccc(Oc2ccc(I)cc2)cc1 [C57, (Z)-2-(5-Fluoro-1-(4-(4-iodophenoxy)benzylidene)-2-methyl-1H-inden-3-yl)acetic acid]",inhibition at 3.3 µM,[1]; [5],30 to 50%
same,inhibition at 10 µM,[1]; [5],≥ 50%
same,inhibition at 3.3 µM,[2],< 30%
same,inhibition at 10 µM,[2],≥ 50%
same,inhibition at 3.3 µM,HepG2 (liver cancer),30 to 50%
same,inhibition at 10 µM,HepG2 (liver cancer),≥ 50%
same,inhibition at 3.3 µM,[3],30 to 50%
same,inhibition at 10 µM,[3],≥ 50%
same,inhibition at 3.3 µM,SW480 (colon cancer); [6],< 30%
same,inhibition at 10 µM,SW480 (colon cancer); [6],≥ 50%
same,inhibition at 3.3 µM,HeLa (cervical cancer),< 30%
same,inhibition at 10 µM,HeLa (cervical cancer),≥ 50%
same,inhibition at 3.3 µM,[4],≥ 50%
same,inhibition at 10 µM,[4],≥ 50%
"CC1=C(CC(=O)O)c2cc(F)ccc2/C1=C\c1cccc(-c2ccc(C(F)(F)F)cc2)c1 [D1, (Z)-2-(5-Fluoro-2-methyl-1-((4′-(trifluoromethyl)-[1,1′-biphenyl]-3-yl)-methylene)-1H-inden-3-yl)acetic acid]",inhibition at 3.3 µM,[1]; [5],< 30%
same,inhibition at 10 µM,[1]; [5],≥ 50%
same,inhibition at 30 µM,[1]; [5],≥ 50%
same,inhibition at 3.3 µM,[2],< 30%
same,inhibition at 10 µM,[2],≥ 50%
same,inhibition at 30 µM,[2],≥ 50%
same,inhibition at 3.3 µM,HepG2 (liver cancer),30 to 50%
same,inhibition at 10 µM,HepG2 (liver cancer),≥ 50%
same,inhibition at 30 µM,HepG2 (liver cancer),≥ 50%
same,inhibition at 3.3 µM,[3],30 to 50%
same,inhibition at 10 µM,[3],≥ 50%
same,inhibition at 30 µM,[3],≥ 50%
same,inhibition at 3.3 µM,SW480 (colon cancer); [6],< 30%
same,inhibition at 10 µM,SW480 (colon cancer); [6],≥ 50%
same,inhibition at 30 µM,SW480 (colon cancer); [6],≥ 50%
same,inhibition at 3.3 µM,HeLa (cervical cancer),≥ 50%
same,inhibition at 10 µM,HeLa (cervical cancer),≥ 50%
same,inhibition at 30 µM,HeLa (cervical cancer),≥ 50%
same,inhibition at 3.3 µM,[4],< 30%
same,inhibition at 10 µM,[4],≥ 50%
same,inhibition at 30 µM,[4],≥ 50%
"CC1=C(CC(=O)O)c2cc(F)ccc2/C1=C\c1ccc(OCCc2ccccc2)cc1 [B30, (Z)-2-(5-Fluoro-2-methyl-1-(4-phenethoxybenzylidene)-1H-inden-3-yl)acetic acid]",inhibition at 3.3 µM,[1]; [5],30 to 50%
same,inhibition at 10 µM,[1]; [5],≥ 50%
same,inhibition at 3.3 µM,[2],< 30%
same,inhibition at 10 µM,[2],≥ 50%
same,inhibition at 3.3 µM,HepG2 (liver cancer),< 30%
same,inhibition at 10 µM,HepG2 (liver cancer),≥ 50%
same,inhibition at 3.3 µM,[3],≥ 50%
same,inhibition at 10 µM,[3],≥ 50%
same,inhibition at 3.3 µM,SW480 (colon cancer); [6],< 30%
same,inhibition at 10 µM,SW480 (colon cancer); [6],≥ 50%
same,inhibition at 3.3 µM,HeLa (cervical cancer),< 30%
same,inhibition at 10 µM,HeLa (cervical cancer),≥ 50%
same,inhibition at 3.3 µM,[4],< 30%
same,inhibition at 10 µM,[4],< 30%
"CC1=C(CC(=O)O)c2cc(Cl)ccc2/C1=C\c1cccc(Oc2ccc(O)cc2)c1 [C104, (Z)-2-(5-Chloro-1-(3-(4-hydroxyphenoxy)benzylidene)-2-methyl-1H-inden-3-yl)acetic acid]",inhibition at 3.3 µM,[1]; [5],< 30%
same,inhibition at 10 µM,[1]; [5],≥ 50%
same,inhibition at 3.3 µM,[2],< 30%
same,inhibition at 10 µM,[2],≥ 50%
same,inhibition at 3.3 µM,HepG2 (liver cancer),< 30%
same,inhibition at 10 µM,HepG2 (liver cancer),≥ 50%
same,inhibition at 3.3 µM,[3],≥ 50%
same,inhibition at 10 µM,[3],≥ 50%
same,inhibition at 3.3 µM,SW480 (colon cancer); [6],< 30%
same,inhibition at 10 µM,SW480 (colon cancer); [6],≥ 50%
same,inhibition at 3.3 µM,HeLa (cervical cancer),≥ 50%
same,inhibition at 10 µM,HeLa (cervical cancer),≥ 50%
same,inhibition at 3.3 µM,[4],≥ 50%
same,inhibition at 10 µM,[4],≥ 50%
